The term IC50 denotes the concentration at which inhibition is half-maximal. A word on the inhibition in vivo: it is the drop in the measured response relative to a control, in per cent. In general, inhibition refers to the change of the read-out against control, counted positive when it falls. A higher inhibition goes with a response far below the control.

Results on 19 molecules are retold here after patent US9284333B2, “Fused pyrroledicarboxamides and their use as pharmaceuticals” (SANOFI, priority 2012, dated 2016).

Experiment [1] deals with Human TASK-1 channels (Homo sapiens (Human), UniProt O14649). In words: Determination of the activity on the TASK-1 channel in Xenopus oocytes (two-microelectrode voltage clamp). The experiment is classed as cell-based. The following applies: for IC50: human TASK-1 expressed in Xenopus oocytes, room temperature, read-out: IC50 value for TASK-1 inhibition; for inhibition at 5 µM: compound concentration 5 μM. The procedure, abridged:
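Current during 500 ms pulses to 40 mV from a −90 mV hold was recorded in oocytes expressing human TASK-1 for two days after cRNA injection. Compounds were added cumulatively to the ND96 bath (pH 7.4, room temperature). IC50 came from dose-response fitting of inhibition relative to pre-compound current.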

Experiment [2] has as its system atrium of the anesthetized pig. Put plainly: Investigation of the refractory period and the left-atrial vulnerability in the anesthetized pig. The format is in vivo. The conditions noted are these: Sus scrofa, iv. As to the method: Investigation of the Refractory Period and the Left-Atrial Vulnerability in the Pig
The compounds were tested for prolongation of the refractory period and antiarrhythmic activity on the atrium of the anesthetized pig as described in Knobloch K. et al., Naunyn-Schmiedeberg's Arch. Pharmacol. 2002, 366, 482-487. Here the anti-arrhythmic action relates to the inhibition of the occurrence of episodes of atrial arrhythmias which are induced by a prematurely placed extra-stimulus (S2) in the left atrium (=left-atrial vulnerability). The prolongation of the refractory period (refractoriness) is expressed as the increase in percent of the value of the refractory period 15 min after the end of administration of the test compound vs. the basal value before administration. Mean values of the prolongation of the refractory period are shown from three rates (150/min, 200/min and 250/min). The values for the inhibition of left atrial vulnerability (inhibition of episodes of arrhythmias) in percent refer to three measurements (three time points) before administration of the test compound vs. at least three measurements during the first hour after administration.
In Table 16, the action of compounds of the formula I from the examples above on the refractory period of the left atrium and their antiarrhythmic activity in the anesthetized pig after intravenous (i.v.) administration of the described dose is shown.

Sequence of Human TASK-1 channels (O14649 whole entry): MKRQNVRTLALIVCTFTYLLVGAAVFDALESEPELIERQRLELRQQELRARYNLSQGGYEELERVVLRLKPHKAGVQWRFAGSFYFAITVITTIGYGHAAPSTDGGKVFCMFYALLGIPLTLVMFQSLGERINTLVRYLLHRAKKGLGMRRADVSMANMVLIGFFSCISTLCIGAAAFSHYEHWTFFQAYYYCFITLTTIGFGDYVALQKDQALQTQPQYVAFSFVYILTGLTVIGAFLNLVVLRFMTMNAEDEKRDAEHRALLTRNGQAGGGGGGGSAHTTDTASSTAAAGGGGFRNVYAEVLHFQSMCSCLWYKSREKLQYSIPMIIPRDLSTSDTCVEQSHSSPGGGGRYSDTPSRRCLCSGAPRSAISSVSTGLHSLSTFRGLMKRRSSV

`CC[C@@H](NC(=O)c1cc(C(=O)N[C@H](C)c2ccc(F)cc2)n2c1COCC2)c1ccc(C(F)(F)F)nc1` [16g, 3,4-Dihydro-1H-pyrrolo[2,1-c][1,4]oxazine-6,8-dicarboxylic acid 6-{[(R)-1-(4-fluoro-phenyl)-ethyl]-amide} 8-{[(R)-1-(6-trifluoromethyl-pyridin-3-yl)-propyl]-amide}]: the half-maximal inhibitory concentration (IC50) in experiment [1] is 290 nM. This molecule also yielded an inhibition in vivo at 0.3 mg/kg in experiment [2] (0.3 mg/kg i.v. bolus injection) of 100%. In addition, in experiment [2] (0.25 h, 0.3 mg/kg i.v. bolus injection, 15 min after administration vs basal, mean of three rates, read-out: % Prolongation of left atrial refractory period), the change in vivo at 0.3 mg/kg came to 19%.

`CC[C@H](NC(=O)c1cc(C(=O)N[C@H](C)c2ccc(F)cc2)n2c1COCC2)c1ncccn1` [16h, 3,4-Dihydro-1H-pyrrolo[2,1-c][1,4]oxazine-6,8-dicarboxylic acid 6-{[(R)-1-(4-fluoro-phenyl)-ethyl]-amide} 8-[((S)-1-pyrimidin-2-yl-propyl)amide]]: the half-inhibitory concentration (IC50) in experiment [1] was 240 nM. Moreover, in experiment [2] (0.1 mg/kg i.v. infusion over 1 h), the inhibition in vivo at 0.1 mg/kg came out at 97%. Moreover, the change in vivo at 0.1 mg/kg in experiment [2] (0.25 h, 0.1 mg/kg i.v. infusion over 1 h, read-out: % Prolongation of left atrial refractory period) was found to be 42%.

For the molecule `CC[C@@H](NC(=O)c1cc(C(=O)NC(C)c2nnn(C)n2)n2c1COCC2)c1ccccc1` (stereo partly drawn) [16rn, 3,4-Dihydro-1H-pyrrolo[2,1-c][1,4]oxazine-6,8-dicarboxylic acid 6-{[1-(2-methyl-2H-tetrazol-5-yl)-ethyl]-amide} 8-[((R)-1-phenyl-propyl)-amide]], the IC50 in experiment [1] came to 180 nM.

Take `CC[C@@H](NC(=O)c1cc(C(=O)NC(C)c2nnnn2C)n2c1COCC2)c1ccccc1` (stereo partly drawn) [16ro, 3,4-dihydro-1H-pyrrolo[2,1-c][1,4]oxazine-6,8-dicarboxylic acid 6-{[1-(1-methyl-1H-tetrazol-5-yl)-ethyl]-amide} 8-[((R)-1-phenyl-propyl)-amide]]: the IC50 in experiment [1] turned out to be 2800 nM.

Consider `CC[C@@H](NC(=O)c1cc(C(=O)N(CC)Cc2nnn(C)n2)n2c1COCC2)c1ccccc1` [16rp, 3,4-Dihydro-1H-pyrrolo[2,1-c][1,4]oxazine-6,8-dicarboxylic acid 6-[ethyl-(2-methyl-2H-tetrazol-5-ylmethyl)-amide] 8-[((R)-1-phenyl-propyl)-amide]], for which the IC50 in experiment [1] stood at 450 nM.

In the case of `CC[C@@H](NC(=O)c1cc(C(=O)NC(C)c2nnn(CC)n2)n2c1COCC2)c1ccccc1` (stereo partly drawn) [16rq, 3,4-Dihydro-1H-pyrrolo[2,1-c][1,4]oxazine-6,8-dicarboxylic acid 6-{[1-(2-ethyl-2H-tetrazol-5-yl)-ethyl]-amide} 8-[((R)-1-phenyl-propyl)-amide]], the IC50 in experiment [1] amounted to 750 nM.

Regarding `CC[C@@H](NC(=O)c1cc(C(=O)NC(C)c2nnnn2CC)n2c1COCC2)c1ccccc1` (stereo partly drawn) [16rr, 3,4-Dihydro-1H-pyrrolo[2,1-c][1,4]oxazine-6,8-dicarboxylic acid 6-{[1-(1-ethyl-1H-tetrazol-5-yl)-ethyl]-amide} 8-[((R)-1-phenyl-propyl)-amide]], at 5 µM the inhibition in experiment [1] was 71%.

`CC[C@@H](NC(=O)c1cc(C(=O)NCc2nnn(C)n2)n2c1COCC2)c1ccccc1` [16rs, 3,4-Dihydro-1H-pyrrolo[2,1-c][1,4]oxazine-6,8-dicarboxylic acid 6-[(2-methyl-2H-tetrazol-5-ylmethyl)-amide] 8-[((R)-1-phenyl-propyl)-amide]]: the concentration for half-maximal inhibition (IC50) in experiment [1] was 2500 nM.

On to `CCN(Cc1nnn(C)n1)C(=O)c1cc(C(=O)N[C@H](C)c2ccc(F)cc2)n2c1COCC2` [16rt, 3,4-Dihydro-1H-pyrrolo[2,1-c][1,4]oxazine-6,8-dicarboxylic acid 8-[ethyl-(2-methyl-2H-tetrazol-5-ylmethyl)-amide] 6-{[(R)-1-(4-fluoro-phenyl)-ethyl]-amide}], for which the inhibition at 5 µM in experiment [1] stood at 72%.

On to `CC[C@@H](NC(=O)c1c(Br)c(C(=O)N2CCC[C@@H]2C)n2c1COCC2)c1ccc(C(F)(F)F)nc1` [16ru, 7-Bromo-6-((S)-2-methyl-pyrrolidine-1-carbonyl)-3,4-dihydro-1H-pyrrolo[2,1-c][1,4]oxazine-8-carboxylic acid [(R)-1-(6-trifluoromethyl-pyridin-3-yl)-propyl]-amide], for which the IC50 in experiment [1] is 820 nM.

In the case of `CC[C@@H](NC(=O)c1c(C)c(C(=O)N2CCC[C@@H]2C)n2c1COCC2)c1ccc(C(F)(F)F)nc1` [16rx, 7-Methyl-6-((S)-2-methyl-pyrrolidine-1-carbonyl)-3,4-dihydro-1H-pyrrolo[2,1-c][1,4]oxazine-8-carboxylic acid [(R)-1-(6-trifluoromethyl-pyridin-3-yl)-propyl]-amide], in experiment [1], the concentration for half-maximal inhibition (IC50) worked out at 4700 nM.

In the case of `CC[C@@H](NC(=O)c1cc(C(=O)N2CCC[C@@H]2C)n2c1COCC2)c1ccccc1C(F)(F)F` [16s, 6-((S)-2-Methyl-pyrrolidine-1-carbonyl)-3,4-dihydro-1H-pyrrolo[2,1-c][1,4]oxazine-8-carboxylic acid [(R)-1-(2-trifluoromethyl-phenyl)-propyl]-amide], the half-inhibitory concentration (IC50) in experiment [1] was found to be 250 nM.

Regarding `CC[C@@H](NC(=O)c1cc(C(=O)N2CCC[C@@H]2C)n2c1COCC2)c1c(F)cccc1F` [16t, 6-((S)-2-Methyl-pyrrolidine-1-carbonyl)-3,4-dihydro-1H-pyrrolo[2,1-c][1,4]oxazine-8-carboxylic acid [(R)-1-(2,6-difluoro-phenyl)-propyl]-amide], in experiment [1], the half-inhibitory concentration (IC50) was 44 nM.

With `CC[C@@H](NC(=O)c1cc(C(=O)N2CCC[C@@H]2C)n2c1COCC2)c1ccc(F)cc1Cl` [16u, 6-((S)-2-Methyl-pyrrolidine-1-carbonyl)-3,4-dihydro-1H-pyrrolo[2,1-c][1,4]oxazine-8-carboxylic acid [(R)-1-(2-chloro-4-fluoro-phenyl)-propyl]-amide], the IC50 in experiment [1] came out at 49 nM.

For the molecule `CC[C@@H](NC(=O)c1cc(C(=O)N2CCC[C@@H]2C)n2c1COCC2)c1ccc(F)cc1F` [16v, 6-((S)-2-Methyl-pyrrolidine-1-carbonyl)-3,4-dihydro-1H-pyrrolo[2,1-c][1,4]oxazine-8-carboxylic acid [(R)-1-(2,4-difluoro-phenyl)-propyl]-amide], in experiment [1], the concentration for half-maximal inhibition (IC50) is 110 nM.

In the case of `CC[C@@H](NC(=O)c1cc(C(=O)N2CCC[C@@H]2C)n2c1COCC2)c1cc(F)ccc1Cl` [16w, 6-((S)-2-Methyl-pyrrolidine-1-carbonyl)-3,4-dihydro-1H-pyrrolo[2,1-c][1,4]oxazine-8-carboxylic acid [(R)-1-(2-chloro-5-fluoro-phenyl)-propyl]-amide], the concentration for half-maximal inhibition (IC50) in experiment [1] turned out to be 40 nM.

Turning to `C[C@H]1CCCN1C(=O)c1cc(C(=O)NCc2ccc(F)cc2Cl)c2n1CCOC2` [16x, 6-((S)-2-Methyl-pyrrolidine-1-carbonyl)-3,4-dihydro-1H-pyrrolo[2,1-c][1,4]oxazine-8-carboxylic acid 2-chloro-4-fluoro-benzylamide], in experiment [1], the IC50 came out at 190 nM.

`C[C@H]1CCCN1C(=O)c1cc(C(=O)NCc2c(F)cccc2F)c2n1CCOC2` [16y, 6-((S)-2-Methyl-pyrrolidine-1-carbonyl)-3,4-dihydro-1H-pyrrolo[2,1-c][1,4]oxazine-8-carboxylic acid 2,6-difluoro-benzylamide]: the IC50 in experiment [1] is 1000 nM.

`CC[C@@H](NC(=O)c1cc(C(=O)N2CCC[C@@H]2C)n2c1COCC2)c1cccc(OC)n1` [16z, 6-((S)-2-Methyl-pyrrolidine-1-carbonyl)-3,4-dihydro-1H-pyrrolo[2,1-c][1,4]oxazine-8-carboxylic acid [(R)-1-(6-methoxy-pyridin-2-yl)-propyl]-amide]: the IC50 in experiment [1] turned out to be 270 nM.
